Values quoted from earlier work in patent publication US6521254B2, “Single-dose antihistamine/decongestant formulations for treating rhinitis” (J-Med Pharmaceuticals, Inc., priority 1998, dated 2003).

What was measured:
histamine receptors = details: for duration of therapeutic benefit suitable for dosing interval (FDA standard, labeling): cetirizine 5 mg and 10 mg, loratidine 10 mg, fexofenadine 180 mg
[1] = compared with other non-sedating and with sedating antihistamines
[2] = 30 mg pseudoephedrine, immediate release, syrup

O=C(O)COCCN1CCN(C(c2ccccc2)c2ccc(Cl)cc2)CC1 (centres unmarked) [cetirizine]
duration of therapeutic antihistaminic benefit (histamine receptors; 5 mg cetirizine, immediate release): 24 h | duration of therapeutic benefit suitable for dosing interval (FDA standard, labeling) (histamine receptors): 24 h | duration of antihistaminic effect (histamine receptors; oral, human): 24 h | time after dosing at which antihistaminic effect is exerted (onset) (histamine receptors; oral, human, given alone / immediate release): one | sedation [1]: slightly more sedation than other non-sedating antihistamines

CCOC(=O)N1CCC(=C2c3ccc(Cl)cc3CCc3cccnc32)CC1 [loratidine]
duration of therapeutic benefit suitable for dosing interval (FDA standard, labeling) (histamine receptors): 24 h | duration of antihistaminic effect (histamine receptors; oral, human): > 24 h

CN[C@@H](C)[C@@H](O)c1ccccc1 [pseudoephedrine]
duration of action [2]: 4 to 6 h
